Here are results for one molecule from patent publication US9440930B2, “Substituted bicyclic dihydropyrimidinones and their use as inhibitors of neutrophil elastase activity” (Boehringer Ingelheim International GmbH, priority 2014, dated 2016).

Data set [1] concerns the target T1, Human neutrophil elastase (Homo sapiens, UniProt P08246).
T1 construct: purchased Calbiochem 324681
T1 sequence (P08246 30-247 limits assumed): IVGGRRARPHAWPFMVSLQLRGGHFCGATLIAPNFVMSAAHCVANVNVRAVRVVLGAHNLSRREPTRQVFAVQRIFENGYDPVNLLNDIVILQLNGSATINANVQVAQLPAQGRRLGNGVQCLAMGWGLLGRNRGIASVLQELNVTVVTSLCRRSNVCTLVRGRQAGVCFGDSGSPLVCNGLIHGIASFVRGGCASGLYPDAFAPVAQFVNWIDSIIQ
Description: Human Neutrophil Elastase Assay. The format is biochemical. The following applies: substrate MeOSuc-Ala-Ala-Pro-Val-AMC 250 μM, pH 7.5, room temperature. The text has this: Human Neutrophil Elastase Assay

A short description of data set [2]: Drug transport across human Caco-2 cells. Type of data set: in vitro ADME. The conditions noted are these: pH 7.2, 37° C. The text has this: Assay for Determination of Drug Transport Across Human Caco-2 Cells
The assay provides information on the potential of a compound to pass the cell membrane, on the extent of oral absorption as well as on whether the compound is actively transported by uptake and/or efflux transporters. For the measurement of permeability across polarized, confluent human cancer colon carcinoma cells 2 (Caco-2) cell monolayers grown on permeable filter supports are used as the in vitro absorption model.
Apparent permeability coefficients (PE) of the compounds across the Caco-2 monolayers are measured (pH 7.2, 37° C.) in apical-to-basal (AB) (absorptive) and basal-to-apical (BA) (secretory) transport direction. AB permeability (PEAB) represents drug absorption from the intestine into the blood and BA permeability (PEBA) drug secretion from the blood back into the intestine via both passive permeability as well as active transport mechanisms mediated by efflux and uptake transporters that are expressed on the Caco-2 cells. The compounds are assigned to permeability/absorption classes by comparison of the AB permeabilities with the AB permeabilities of reference compounds with known in vitro permeability and oral absorption in the human. Identical or similar permeabilities in both transport directions indicate passive permeation, vectorial permeability points to additional active transport mechanisms. […] Active transport is concentration-dependently saturable.
Caco-2 cells (1-2*10^5 cells/cm^2 area) are seeded on filter inserts (Costar transwell polycarbonate or PET filters, 0.4 μm pore size) and cultured (DMEM) for 10 to 25 days. Compounds are dissolved in appropriate solvent (like DMSO, 1-20 min stock solutions). Stock solutions are diluted with HTP-4 buffer (128.13 min NaCl, 5.36 min KCl, 1 mM MgSO4, 1.8 min CaCl2, 4.17 min NaHCO3, 1.19 min Na2HPO4×7H2O, 0.41 mM NaH2PO4×H2O, 15 min HEPES, 20 min glucose, pH 7.2) to prepare the transport solutions (typically 10 μM compound, final DMSO<=0.5%). The transport solution (TL) is applied to the apical or basolateral donor side for measuring A-B or B-A permeability (3 filter replicates), respectively. The receiver side contains HTP-4 buffer supplemented with 2% BSA. Samples are collected at the start and end of experiment from the donor and at various time intervals for up to 2 hours also from the receiver side for concentration measurement by LC-MS/MS or scintillation counting. Sampled receiver volumes are replaced with fresh receiver solution.
(Caco-2 cells form a polarised layer with tight junctions and transporters.)

In data set [3] the target is T2, cytochrome P450 2C9 (Homo sapiens, UniProt P11712).
T2 construct: is assayed at 37° C. with human liver microsomes; from tissue; host or cells: human liver microsomes
Description: Cytochrome P450 2C9 inhibition. The format is in vitro ADME. The conditions noted are these: human liver microsomes, Diclofenac hydroxylation. The text has this: Assay for Determination of Cytochrome P450 2C9 Inhibition

Data set [4] concerns the target T3, neutrophil elastase in human plasma (Homo sapiens, UniProt P08246).
T3 construct: The stimulated blood is centrifuged to generate the neutrophil elastase enriched plasma; from tissue; host or cells: plasma from zymosan-stimulated citrated whole blood of healthy human donors
T3 sequence (P08246 30-267): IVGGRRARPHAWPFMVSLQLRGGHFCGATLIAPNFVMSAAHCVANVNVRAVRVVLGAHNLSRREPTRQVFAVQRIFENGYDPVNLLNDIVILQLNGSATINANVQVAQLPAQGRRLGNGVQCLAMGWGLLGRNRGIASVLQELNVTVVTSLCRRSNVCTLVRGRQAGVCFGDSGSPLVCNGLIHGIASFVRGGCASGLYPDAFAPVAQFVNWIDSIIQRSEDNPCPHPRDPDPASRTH
As to the kind of experiment: Neutrophil elastase inhibitory activity in human plasma. Type of data set: biochemical. The conditions noted are these: zymosan-stimulated human plasma, substrate MeOSuc-Ala-Ala-Pro-Val-AMC 250 μM. The method, then:
Assay for the Determination of Neutrophil Elastase Inhibitory Activity in Human Plasma
Citrated blood from human healthy donors is mixed with zymosan suspension and incubated at room temperature. This leads to the stimulation of neutrophils and the release of neutrophil elastase into the plasma. The stimulated blood is centrifuged to generate the neutrophil elastase enriched plasma.
• A single 45 ml blood sample is taken into a 50 ml tube containing citrate (3.13%, 5 mL) and the tube is gently inverted 4 times. • Immediately after blood sampling, zymosan working solution (5 mL) is added. • After the addition of zymosan working solution, the tubes are capped, mixed gently and incubated at 22° C. for 15 min on a shaker at 20 rpm. • Make 10 ml aliquots after the incubation time. • Centrifuge the 15 ml tubes at 800 g for 15 min at 4° C. in a Jouan centrifuge. • Harvest the plasma and make 1-5 ml aliquots. • Store the plasma at −80° C.
A dose response curve is generated to calculate the EC50 of the inhibitor. The analysis of the data is performed by the calculation of the percentage of fluorescence in the presence of the test compound compared to the fluorescence of the vehicle control after subtracting the background fluorescence: An inhibitor of the neutrophil elastase enzyme will give values between 100% control (no inhibition) and 0% control (complete inhibition).

T2 sequence (P11712 whole entry): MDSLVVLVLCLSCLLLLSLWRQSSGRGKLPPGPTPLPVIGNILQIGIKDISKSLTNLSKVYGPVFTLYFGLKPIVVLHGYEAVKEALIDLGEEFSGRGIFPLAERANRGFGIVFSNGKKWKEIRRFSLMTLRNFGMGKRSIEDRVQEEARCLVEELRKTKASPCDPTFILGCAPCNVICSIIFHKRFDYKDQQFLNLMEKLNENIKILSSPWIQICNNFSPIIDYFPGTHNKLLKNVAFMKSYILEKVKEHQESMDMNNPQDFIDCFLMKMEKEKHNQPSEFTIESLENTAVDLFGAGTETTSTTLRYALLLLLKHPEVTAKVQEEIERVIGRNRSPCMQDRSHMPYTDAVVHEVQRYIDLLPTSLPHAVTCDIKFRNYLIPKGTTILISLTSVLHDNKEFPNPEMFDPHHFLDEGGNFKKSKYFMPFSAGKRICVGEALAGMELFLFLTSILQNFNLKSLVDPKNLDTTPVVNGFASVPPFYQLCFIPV

`CN1C(=O)N(c2cccc(C(F)(F)F)c2)C2=C(C(=O)CCC2)[C@H]1c1ccc(C#N)cc1[S+](C)[O-]` (single isomer, unassigned) [Example 2.2A, 3-Methanesulfinyl-4-[3-methyl-2,5-dioxo-1-(3-trifluoromethyl-phenyl)-1,2,3,4,5,6,7,8-octahydro-quinazolin-4-yl]-benzonitrile]: the values for the IC50 in data set [1] and in data set [3] were < 1 nM and > 50000 nM, respectively. The Papp A→B at 10 µM in data set [2] (apical-to-basal, read-out: PEAB) was determined as 190 nm/s. In addition, in data set [2] (basal-to-apical, read-out: PEBA), the Papp B→A at 10 µM was found to be 970 nm/s. The EC50 in data set [4] was determined as 1 nM.

By IC50 is commonly meant the point on the concentration scale where inhibition reaches its midpoint. Lower therefore signals higher potency. For orientation: EC50 means the midpoint of the concentration-response curve.
